Tests used:
U87MG cells [1] = assay: JC-1 staining assay (mitochondrial membrane potential); type: cell-based, human; details: 10 μM, 4 h, 660-nm laser 1 min
Procedure: Changes in the mitochondria membrane potentials of U87MG cells after various treatments were evaluated using a conventional JC-1 staining assay. U87MG cells were cultured in 12-well plates (3×10^5 cells/well) 24 h before treatment with Ce6, TPP-Ce6, and bEV(TPP-Ce6) (10 µM of Ce6 or TPP-Ce6). After 4 h of incubation, the cells were exposed to a 660-nm laser for 1 min. The untreated cells were adopted as a control. Then, the irradiated cells were treated with JC-1 solution in PBS (2.5 μg/mL) for 20 min in the dark, then rinsed twice with PBS. Fluorescent images of the cells were obtained by fluorescence microscopy (Nikon Eclipse Ti—S). Red fluorescence signals indicate the JC-1 aggregates in polarized mitochondria of healthy cells whereas green fluorescence signals reflect the JC-1 monomers in depolarized mitochondria, which indicates the loss in mitochondrial membrane potential, an indicator of mitochondrial damage.

U87MG cells [2] = assay: Intracellular ROS generation (DCF-DA); type: cell-based, human
Procedure: (§1) The generation of ROS by Ce6 and TPP-Ce6 before and after 660 nm laser treatment was quantified using 2′,7′-dichlorofluorescein (DCF) in a cell-free system. After the sample solutions were treated with DCF for 1 h in the dark, ROS generation was determined by measuring the fluorescence signal from the samples. The intracellular ROS production in U87MG cells after various treatments was measured using DCF-DA. U87MG cells were inoculated into 12 well-plates at a density of 3×10^5 cells/well and cultured overnight. After the cells were incubated with 10 μM DCF-DA for 15 min, they were treated with Ce6, TPP-Ce6, and bEV(TPP-Ce6) at a TPP-Ce6 (or Ce6) concentration of 10 μM. After 4 h of incubation, the cells were trypsinized and divided into two groups. One of the groups was treated with a 660 nm laser for 1 min. The cells not subjected to laser treatment were kept as a control. After 30 min of incubation in the dark, relative ROS generation levels of each sample were quantified by flow cytometry (CytoFLEX).
To visualize ROS generation by TPP-Ce6 and bEV(TPP-Ce6) in U87MG cells under light irradiation, the cells were inoculated into 12-well plates (3×10^5 cells/well) and stained with 10 μM of DCF-DA. […] The green fluorescence signals indicating intracellular ROS were observed using a fluorescence microscope (Nikon Eclipse Ti-S, Nikon, Tokyo, Japan).

[3] = ROS generation in cell-free system (DCF); details: before and after 660-nm laser treatment
Procedure: as §1

U87MG cells [4] = assay: In vitro phototoxicity, MTT assay; type: cell-based, human; details: 10 μM
Procedure: To investigate the photodynamic effects of TPP-Ce6-loaded EVs, the viability of U87MG cells after various treatments in the presence or absence of laser irradiation was measured using a standard MTT assay. U87MG cells were treated with Ce6, TPP-Ce6, and bEV(TPP-Ce6) at an equivalent Ce6 (or TPP-Ce6) concentration (10 μM, 5.38×10^10 bEVs/mL). Cytotoxicity of blank bEVs against U87 cells was also assessed at various concentrations of bEVs. After 4 h of treatments, the cells were illuminated with a 660 nm laser for 1 min. The cells not subjected to light irradiation were adopted as a negative control. The cells were further incubated for 24 h, and their viabilities were measured.

[5] = test system: orthotopic GBM-xenografted mice; assay: In vivo biodistribution and brain-tumor accumulation by IVIS; details: i.v. 0.8 μmol/kg
Procedure: (§2) All animal experiments were approved by the Institutional Animal Care and Use Committee at Gachon University (Approval number: LCDI-2017-0131). Orthotopic GBM-xenografted mice were prepared using U87MG cells stably expressing luciferase. Briefly, male athymic mice of 5 weeks of age (20-30 g) were placed on a stereotactic device (Harvard Apparatus, USA) under inhalation anesthesia using 1-1.5% isoflurane. U87MG-luc cells (1×10^5 cells) suspended in 2 μL of PBS were injected into the right striatum at a flow rate of 0.5 μL/min through a small hole in the skull at a position 2.0 mm lateral, 0.2 mm anterior, and 3.2 mm ventral to the bregma. The formation of brain tumors in the mice was identified by bioluminescence intensity (BLI).
To evaluate in vivo real-time biodistribution of Ce6, TPP-Ce6, and bEV(TPP-Ce6), orthotopic GBM-xenografted mice (n=4) were intravenously administered with 100 μL of each sample (0.8 μmol/kg for Ce6 or TPP-Ce6). Whole-body fluorescence images were acquired at the predetermined time points within 24 h after i.v. injection using an IVIS optical imaging system with a long wavelength emission filter (640-720 nm) (Ami HT imaging system, Spectral Instruments Imaging, Tucson, AZ, USA). Quantitative analysis of fluorescence intensity in the images was carried out using the region of interest (ROI) function of Aura Imaging 2.20 software (Spectral Instruments Imaging). […]

[6] = test system: luciferase-expressing U87MG brain tumors; assay: In vivo anti-brain tumor efficacy with laser irradiation; parameters: species or system mice
Procedure: as §2
The orthotopic GBM-bearing mice were randomly divided into five groups (n=4) and injected with one of the following regimens by i.v. injection dose of 0.8 μmol/kg Ce6 (or TPP-Ce6) via the tail vein: • (i) PBS, • (ii) PBS+L (L indicates light irradiation), • (iii) Ce6 (0.8 μmol/kg)+L, • (iv) TPP-Ce6 (0.8 μmol/kg)+L, and • (v) bEV(TPP-Ce6) (0.8 μmol/kg)+L.
At 4 h post-injection, the tumor sites of the mice were irradiated with a 660-nm laser (150 mW, 5 min) on the skull. […] Regions of bioluminescence signal were determined using Aura imaging software (Spectral Instruments Imaging). […]

U87MG cells [7] = assay: Intracellular localization by CLSM, MitoTracker Green; type: cell-based, human; details: free Ce6 or TPP-Ce6, 2 h
Procedure: U87MG and bEnd.3 cells (2×10^3 cells/well) were prepared in glass-bottom dishes (35×10 mm^2) and incubated for 24 h. Free Ce6, free TPP-Ce6, and bEV(TPP-Ce6) in serum-free medium were added to the cells at a final TPP-Ce6 (or Ce6) concentration of 0.15 μM. After 2 h of incubation at 37° C., the cells were washed three times with PBS and stained with 1 μg/mL DAPI (Thermo Fisher Scientific) for 10 min. Then, the cells were stained with 1 μM of LysoTracker Green DND-26 (Thermo Fisher Scientific) and 500 nM of MitoTracker Green FM (Thermo Fisher Scientific) for endo/lysosome and mitochondria staining, respectively. The glass-bottom dish was placed in live-cell chamber systems (5% CO2 at 37° C.) connected to a CLSM (Al Plus, Nikon, Japan). The obtained fluorescent images were analyzed for the quantification of colocalization ratios.

Substance: chlorin e6 [Ce6]
- JC-1 red fluorescence / red to green fluorescence ratio (U87MG cells [1]): drastically decreased
- Relative intracellular ROS level, effect of light (U87MG cells [2]; after light irradiation (660 nm, 1 min) vs before): significantly increased after 1 min of light exposure
- DCF-DA fluorescence signals (images) (U87MG cells [2]; without light): weak fluorescence signals
- Relative ROS level in cell-free system [3]: significantly increased the ROS generation
- Cell viability under light irradiation (U87MG cells [4]; 660 nm laser 1 min, 24 h): 72.5%
- Viability / cytotoxicity without light (U87MG cells [4]; no light irradiation): slightly decreased
- Fluorescence in the brain ([5]; 24 h post-injection): weak fluorescence signals
- Whole brain-to-whole body fluorescence intensity ratio, time course ([5]; whole body at 1 min): similar
- H&E staining of brain tumor tissue ([6]; day 9, upon light irradiation): low cell density and nuclear shrinkage
- Tumor growth (bioluminescence intensity) ([6]; i.v. 0.8 μmol/kg, 660 nm laser 5 min at 4 h, 9 days): limited suppression of tumor growth
- Mander's overlap coefficient with MitoTracker Green (U87MG cells [7]): 0.31±0.03

— patent US20240245802A1, “PHARMACEUTICAL COMPOSITION FOR PREVENTING OR TREATING BRAIN TUMORS COMPRISING EXTRACELLULAR VESICLES LOADED WITH MITOCHONDRIA-TARGETING PHOTOSENSITIZER AS AN ACTIVE INGREDIENT” (ExoTheranostics, Inc., priority 2023, published 2024)
